Earlier results on 1 sequence are cited in paper PMC4310808 (European journal of medicinal chemistry, 2014).

For the series, the system named is erythrocytes.

No end group written: not given here.

“GIINTLQKYYCRVRGGRCAVLSCLPKEEQIGKCSTRGRKCCRRKK (also: bicyclic or more (positions not given here)) [HβD-3, Human beta defensin-3]”: the “Hemolytic activity at physiological salt concentrations” value is “no hemolytic activity”.
